What was measured:
[1] = molecular target: A. gallica protoilludene synthase (Armillaria gallica, UniProt P0DL13); type: biochemical
[2] = molecular target: T1, Pro1 (A. gallica protoilludene synthase) expressed in Escherichia coli (Armillaria gallica, UniProt P0DL13); test: Sesquiterpene synthase activity of crude soluble protein extract of E. coli expressing Pro1 (radio-TLC); type: biochemical; settings: same Pro1 lysate incubated with diterpene synthase substrate
T1 construct: A. gallica protoilludene synthase (clone Pro1); made in house; host or cells: E. coli BL21 (DE3) CodonPlus, vector pDEST14; crude soluble lysate
Protocol: Escherichia coli protein extracts were prepared by resolving the cell pellet from cultivation in the described extraction puffer and cells were lysed under constant cooling by two rounds of Microfluidizer treatment.
Part of the organic extract was then spotted onto silica-gel TLC plates and separated using 9:1 cyclohexane:ethyl acetate as the solvent, prior to analysis in a radio-TLC reader (Raytest, Straubenhardt). For the determination of KM values the reactions were stopped by quenching with 100 mM EDTA (final concentration) followed by extraction with n-pentane, purification by silica gel column chromatography and quantitation by liquid scintillation counting. All kinetic activity assays were performed in triplicate. Mass spectrometry analysis of solvent extracts was performed on a QP2010S quadrupole mass spectrometer (Shimadzu) equipped with an Rxi™-5 ms (0.25 mm ID, 30 m length) column (Restek) using the following temperature program: 80° C. for 20 min, followed by heating the column at an rate of 15° C./min to 300° C. with a final constant temperature of 300° C. for 4 min. Fragmentation was achieved by electric ionization at […].
Where cDNA sequencing identified potential terpene synthase clones, the corresponding pENTRY vectors were used in LR recombination reactions involving the pDEST14 destination vector. […]

[Cl][Mn][Cl] [MnCl2]
fall of protoilludene synthase activity ([1]; 5 mM MgCl2 replaced with MnCl2, relative to highest activity with MgCl2): 75%

CCO [ethanol]
effect on enzyme activity [1]: dramatic reduction in activity

CC(C)=CCC/C(C)=C/CC/C(C)=C/CC/C(C)=C/COP(=O)(O)OP(=O)(O)O [gernaylgeranyl diphosphate, geranylgeranyl diphosphate]
substrate converted into less polar product [2]: < 1%

— patent US9005939B2, “Protoilludene synthase” (priority 2010, dated 2015)
